Reference: the NIST ThermoML archive (doi:10.1016/j.jct.2006.11.003)

Assay: xn = mol fraction of the nth substance listed
Settings: 101 kPa, Liquid

Cc1ccccc1C [1,2-dimethylbenzene] + CN1CCCC1=O
Settings	mass density [kg/m3]
293.15 K, x1 = 0.0478	1024.81
293.15 K, x1 = 0.0865	1018.48
293.15 K, x1 = 0.1584	1006.82
293.15 K, x1 = 0.2266	995.89
293.15 K, x1 = 0.2714	988.75
293.15 K, x1 = 0.3393	978.06
293.15 K, x1 = 0.387	970.61
293.15 K, x1 = 0.4321	963.63
293.15 K, x1 = 0.5011	953.04
293.15 K, x1 = 0.5668	943.08
293.15 K, x1 = 0.6297	933.64
293.15 K, x1 = 0.7099	921.74
293.15 K, x1 = 0.7859	910.6
293.15 K, x1 = 0.8577	900.18
293.15 K, x1 = 0.9388	888.55
293.15 K, x1 = 1	879.84
303.15 K, x1 = 0.0565	1014.2
303.15 K, x1 = 0.1122	1005.19
303.15 K, x1 = 0.1895	992.78
303.15 K, x1 = 0.2467	983.7
303.15 K, x1 = 0.3239	971.56
303.15 K, x1 = 0.3967	960.27
303.15 K, x1 = 0.4565	951.08
303.15 K, x1 = 0.5127	942.54
303.15 K, x1 = 0.5655	934.58
303.15 K, x1 = 0.6251	925.68
303.15 K, x1 = 0.7076	913.5
303.15 K, x1 = 0.7626	905.46
303.15 K, x1 = 0.8498	892.86
303.15 K, x1 = 0.9049	884.97
303.15 K, x1 = 0.9639	876.58
303.15 K, x1 = 1	871.48
313.15 K, x1 = 0.0485	1006.39
313.15 K, x1 = 0.0922	999.35
313.15 K, x1 = 0.1795	985.39
313.15 K, x1 = 0.2368	976.31
313.15 K, x1 = 0.3036	965.84
313.15 K, x1 = 0.3679	955.86
313.15 K, x1 = 0.4285	946.56
313.15 K, x1 = 0.4894	937.31
313.15 K, x1 = 0.5375	930.05
313.15 K, x1 = 0.6034	920.22
313.15 K, x1 = 0.673	909.94
313.15 K, x1 = 0.7355	900.8
313.15 K, x1 = 0.8196	888.65
313.15 K, x1 = 0.8767	880.48
313.15 K, x1 = 0.9289	873.06
313.15 K, x1 = 1	863.03
323.15 K, x1 = 0.0478	997.82
323.15 K, x1 = 0.1014	989.16
323.15 K, x1 = 0.1603	979.74
323.15 K, x1 = 0.2364	967.69
323.15 K, x1 = 0.3026	957.34
323.15 K, x1 = 0.3575	948.83
323.15 K, x1 = 0.4244	938.56
323.15 K, x1 = 0.4915	928.37
323.15 K, x1 = 0.5582	918.35
323.15 K, x1 = 0.6217	908.9
323.15 K, x1 = 0.6735	901.26
323.15 K, x1 = 0.7536	889.56
323.15 K, x1 = 0.8206	879.9
323.15 K, x1 = 0.8728	872.43
323.15 K, x1 = 0.9511	861.36
323.15 K, x1 = 1	854.51
333.15 K, x1 = 0.0579	986.94
333.15 K, x1 = 0.1023	979.83
333.15 K, x1 = 0.1814	967.25
333.15 K, x1 = 0.2556	955.59
333.15 K, x1 = 0.3135	946.59
333.15 K, x1 = 0.3815	936.11
333.15 K, x1 = 0.4478	926.02
333.15 K, x1 = 0.5014	917.94
333.15 K, x1 = 0.5654	908.37
333.15 K, x1 = 0.6122	901.45
333.15 K, x1 = 0.6632	893.96
333.15 K, x1 = 0.8105	872.67
333.15 K, x1 = 0.8744	863.57
333.15 K, x1 = 0.9214	856.93
333.15 K, x1 = 0.9632	851.06
333.15 K, x1 = 1	845.91
343.15 K, x1 = 0.0462	979.94
343.15 K, x1 = 0.1045	970.59
343.15 K, x1 = 0.1614	961.55
343.15 K, x1 = 0.2153	953.05
343.15 K, x1 = 0.2864	941.94
343.15 K, x1 = 0.3576	930.94
343.15 K, x1 = 0.4102	922.9
343.15 K, x1 = 0.4828	911.91
343.15 K, x1 = 0.5477	902.2
343.15 K, x1 = 0.6065	893.5
343.15 K, x1 = 0.6735	883.68
343.15 K, x1 = 0.7533	872.13
343.15 K, x1 = 0.8095	864.07
343.15 K, x1 = 0.8745	854.83
343.15 K, x1 = 0.9407	845.51
343.15 K, x1 = 1	837.23
353.15 K, x1 = 0.0475	970.95
353.15 K, x1 = 0.1037	961.94
353.15 K, x1 = 0.1582	953.26
353.15 K, x1 = 0.2167	944.03
353.15 K, x1 = 0.2633	936.72
353.15 K, x1 = 0.34	924.83
353.15 K, x1 = 0.4067	914.62
353.15 K, x1 = 0.4529	907.6
353.15 K, x1 = 0.5184	897.76
353.15 K, x1 = 0.5689	890.24
353.15 K, x1 = 0.6322	880.91
353.15 K, x1 = 0.7097	869.62
353.15 K, x1 = 0.7859	858.64
353.15 K, x1 = 0.8511	849.36
353.15 K, x1 = 0.9354	837.48
353.15 K, x1 = 1	828.47
